Source: patent US20010055753A1, “Method to regulate CD40 signaling” (National Jewish Medical and Research Center, priority 1995, published 2001)

What was measured:
[1] = tested on: p42^erk2; test: Immunoblot with anti-ERK2 antibody (mobility shift) in Ramos cells; format: cell-based, human; details: PMA 100 ng/ml or anti-IgM 10 μg/ml, anti-CD40 5 μg/ml, 0-60 min
Experimental: The human Burkitt's lymphoma cell line Ramos was obtained from the American Type Culture Collection (Rockville, Md.), and cells were maintained in RPMI-1640 supplemented with 50 units/ml penicillin-streptomycin, 2 mM glutamine, and 10% FCS. Exponentially growing cells were used in all experiments.
About 1×10^6 Ramos cells were separately treated with 10 μg/ml anti-IgM F(ab′)2 goat anti-human IgM antibody (obtained from Zymed, San Francisco, Calif.) or 5 μg/ml anti-CD40 antibody (G28-5; obtained from Dr. E. A. Clark, Washington University, Seattle, Wash.) for 0, 1, 5, 15, 30 or 60 min. Ramos cells were also treated with phorbol 12-myristate 13-acetate (PMA; obtained from Sigma, St Louis, Mo.). Immunoblot analysis was performed on each of the samples using monoclonal anti-ERK2 antibody in the following method. The treated cells were lysed in 100 μl of lysis buffer (25 mM Tris-HCl, pH 7.6, 50 mM NaCl, 0.5% Na deoxycholate, 2% NP-40, 0.2% SDS, 1 mM PMSF, 50 μg/ml aprotinin, 50 μM leupeptin). Lysates were centrifuged for 10 min at 14,000 rpm in an Eppendorf microcentrifuge, 90 μl of supernatants were mixed with 30 μl of 4×Laemmli sample buffer. Samples were boiled for 5 min. Twenty μl of prepared samples were electrophoresed through a 12% SDS-PAGE gel, and proteins were transferred to nitrocellulose membranes. […]

[2] = tested on: p42^erk2; test: ERK kinase assay with EGFR662-681 peptide substrate, Ramos cells; format: cell-based, human; details: 100 ng/ml PMA for 20 min, control about 10,000 cpm
Experimental: Kinase activity was evaluated using EGFRF662-681 peptide as a substrate as described previously (Franklin et al., J. Immunol. 153:4890-4898, 1994). Following stimulation, 10^6 cells were lysed in 75 μl of lysis buffer (70 mM β-glycerophosphate, pH 7.2, […], 2 mM MgCl2, 1 mM EGTA, 0.5% Triton X-100, 5 μg/ml leupeptin, 2 μg/ml aprotinin and 1 mM DTT) and placed on ice for 15 min. Cell lysates were centrifuged at 14,000 rpm for 10 min and 20 μl of supernatant were removed and mixed with 20 μl of 2×kinase buffer (50 mM β-glycerophosphate, pH 7.2, […], 20 mM MgCl2, […], 1 mM EGTA, 400 μM EGFR662-681 peptide, 200 μM ATP and 0.225 mCi/ml[γ-^32P] ATP [ICN Biochemicals, Costa Mesa, Calif.]). After 15 min at 30° C., 10 μl of 250 mM EDTA was added, and 45 μl of the reaction mixture was spotted onto P-81 phosphocellulose paper (Whatman, Clifton, N.J.). The papers were washed four times (5 min each) in 400 ml of 75 mM phosphoric acid and then radioactivity bound to the filter paper was determined by liquid scintillation counting.

[3] = tested on: p38 MAP kinase; test: p38 immunoprecipitation kinase assay with ATF-2 (1-110), neutrophils; format: cell-based; details: 100 ng/ml LPS, varying time intervals
Experimental: Neutrophils isolated by the plasma percoll method as previously described (Haslett, C., Am. J. Pathol. 119, 101-110; 1985) were resuspended at about 25×10^6 cells/ml in KRPD containing 0.1% Human Heat Inactivated Platelet-Poor Plasma, 1 mM PMSF, 10, μg/ml leupeptin and 10 μg/ml aprotinin. About 25×10^6 PMN were preincubated for 30 minutes at 37° C., then stimulated with 100 ng/ml LPS for varying time intervals and reactions terminated by a 20 second centrifugation at 15,000 rpm. Cell pellets were lysed with 500 μl cold RIPA (50 mM Tris pH=7.2, 150 mM NaCl, 1.1% SDS, 0.1% sodium deoxycholate, 1% Triton-X-100, 10 mM sodium pyrophosphate, 25 mM M glycerophosphate, 1 mM sodium orthovanadate and 2.1 μg/ml aprotinin), and centrifuged at 15,000 for 10 minutes at 4° C. Triton soluble lysates were initial precleared with Protein A Sepharose for 30 minutes at 4° C., followed by Protein A Sepharose immunoprecipitation with 5 μl/sample polyclonal antibodies specific for p38 and 15 μl of bead suspension, for 120 minutes at 4° C. Beads were washed once in RIPA and twice in PAN (10 mM Pipes, 100 mM NaCl, pH=7.0, and 21 μg/ml aprotinin). […] Reactions were terminated with 2×Laemelli buffer and after boiling, proteins were separated by SDS-PAGE, with quantification of activity by autoradiography and phosphorimaging, and qualitative analysis of enzyme presence and phosphorylation by Western Blotting.

Compound | ERK2 mobility shift (bands reactive with anti-ERK2 antibody) [1] | kinase activity (32P incorporation into EGFR662-681 peptide) [2] | p38 MAP kinase activation [3]
CCCCCCCCCCCCCC(=O)O[C@@H]1[C@@H](C)[C@@]2(O)[C@@H](C=C(CO)C[C@]3(O)C(=O)C(C)=C[C@@H]23)[C@@H]2C(C)(C)[C@]12OC(C)=O [PMA, phorbol 12-myristate 13-acetate] | a second band with immunoreactivity to anti-ERK2 antibody appeared | about 30,000 counts per minute | 
lipopolysaccharide |  |  | activated
